The nature of data set [1]: Maximum tolerated dose (MTD) study. It is filed as in vivo. Here is the method:
FIG. 24. An example of body weight lost for an animal treated with DOX loaded PEG^5kCA4-L-Rh4 at different dosage level, as well as the empty micelles for the test of the MTD studies. Among, the 15 mg/Kg dosage was repeated at day 0 and day 4 to study the MTD of multiple dosages.

The subject of data set [2] is Raji lymphoma xenograft. Briefly: In vivo cancer treatment. Also on record: species or system nude mice. Conditions: 10 mg/kg, days 0, 4 and 8, intravenous. Here is the method: (§1) Female athymic nude mice (Nu/Nu strain), 6-8 weeks age, were purchased from Harlan. All animals were kept under pathogen-free conditions according to AAALAC (Association for Assessment and Accreditation of Laboratory Animal Care) guidelines and were allowed to acclimatize for at least 4 days prior to any experiments. All animal experiments were performed in compliance with institutional guidelines and according to protocol approved by the Committee for the Humane Use of Animals of State University of New York Upstate Medical University. Subcutaneous tumor xenograft mouse models were established by injecting 1×10^7 HT-29 or raji cancer cells in a 100 μL of mixture of PBS and Matrigel (1:1 v/v) subcutaneously at the right flank in female nude mice.
Subcutaneous Raji lymphoma xenograft mouse model was used to evaluate the therapeutic efficacy of different formulations of DOX. […] Tumor sizes were measured with a digital caliper twice per week. Tumor volume was calculated by the formula (L×W^2)/2, where L is the longest, and W is the shortest in tumor diameters (mm). To compare between groups, relative tumor volume (RTV) was calculated at each measurement time point (where RTV equals the tumor volume at given time point divided by the tumor volume prior to initial treatment). […]

Data set [3] concerns Raji lymphoma xenograft. Briefly: In vivo and ex vivo NIRF imaging and biodistribution. Further details: species or system nude mice. The note with it: tail vein injection. Here is the method: as §1
(§2) Nude mice with subcutaneous tumors of an approximate 8 to 10 mm in diameter were subjected to in vivo NIRF optical imaging. At different time points post-injection of DiD and chemodrug (PTX or DOX or GA) co-loaded micelles (the mass ratio of DiD and PTX within nanocarrier was […]), mice were scanned using a IVIS-200 small animal imager at cy5.5 excitation and emission channels. The mice were anaesthetized by isofluorane gas before and during each imaging. After in vivo imaging, animals were euthanized by CO2 overdose after the last in vivo imaging. Tumors and major organs were excised and imaged with the IVIS-200 small animal imager.

The subject of data set [4] is HT-29 colon cancer xenografts. Described as above. Also on record: species or system nude mice. Here is the method: as §1, §2

Experimental findings from patent US11406714B2, “Telodendrimers and nanocarriers and methods of using same” (The Research Foundation for the State University of New York, priority 2013, dated 2022) are described below.

“Also recorded” adds a separate entry of the source.

Take `COc1cccc2c1C(=O)c1c(O)c3c(c(O)c1C2=O)C[C@@](O)(C(=O)CO)C[C@@H]3O[C@H]1C[C@H](N)[C@H](O)[C@H](C)O1` [DOX, Doxorubicin]: the “MTD of free DOX” value in data set [1] is 10 mg/kg. Moreover, the Tumor response result with Raji lymphoma xenograft [2] was “the cancer progression was slowed down”.

For the molecule `CCCCCCCCCCCCCCCCCCN1C(=CC=CC=CC2=[N+](CCCCCCCCCCCCCCCCCC)c3ccccc3C2(C)C)C(C)(C)c2ccccc21.[O-][Cl+3]([O-])([O-])[O-]` [DiD, 1,1′-dioctadecyl-3,3,3′,3′-tetramethylindodicarbocyanine perchlorate], the “Biodistribution of fluorescence signal” value with Raji lymphoma xenograft [3] was “high fluorescent uptake in the liver, lung and spleen and weak signal in the tumor”. Besides, the “Ex vivo biodistribution of fluorescence signal” value in data set [4] (after last in vivo imaging) was “high uptake in liver, lung and spleen and low uptake in tumor; also recorded: high uptake of fluorescent signal in spleen and lung”. Also, the “In vivo tumor targeting (fluorescence imaging)” value in data set [4] (tail vein injection, DiD signal) is “nonspecific binding and low tumor uptake”.
